Tested on: Beta-TC-6 cells
Assay: Insulin release enhancement in Beta-TC-6 cells (insulin ELISA)
Format: cell-based, mouse
Details: for Percent Enhancement of Insulin Secretion (10 μM): compound at 10 μM, compared to glucose-dependent insulin production
Method: Beta-TC-6 cells are an insulin-secreting cell line derived from transgenic mice expressing the large T-antigen of simian virus 40 (SV40) in pancreatic beta-cells as described by Poitout et al., Diabetes, 44:306-313 (1995). The cell line was obtained from ATCC cell bank CAT# CRL-11506 and grown in Dulbecco's Modified Eagle's Medium (DMEM) with 15% fetal bovine serum (FBS), 4 mM glutamine, 4.5 mM glucose 1500 mg/L sodium bicarbonate and 1× penn/strep antibiotic mix in a 37° C. incubator with 5% CO2. Cultures were routinely split 1:2 twice a week with the aid of trypsin.
On the day before the assay 0.1×10^6 Beta-TC-6 cells were plated into each well of 96 well plates, and the cells cultured overnight in growth media.
On the next day, growth media was removed from the plate and the monolayers rinsed with phosphate buffered saline (PBS) and pre-incubated 30 mins at 37° C. in Krebs-Ringer Bicarbonate Buffer (KRBB) consisting of 118.5 mM NaCl, 2.54 mM CaCl2, 1.19 mM KH2PO4, 4.74 mM KCl, 25 mM NaHCO3, 1.19 mM MgSO4, 10 mM HEPES buffer and 0.1% bovine serum albumin at pH 7.4. This buffer was removed and replaced with 100 μL of the same buffer containing various insulin release modulators: including various concentrations of glucose up to 12 mM and compounds up to 100 μM. Compounds stock solutions, e.g. 10-20 mM, were diluted in DMSO. Final DMSO concentrations in incubation buffer were 0.5% or less. Vehicle controls were included. Static incubations were then performed for 2 h at 37° C. The entire incubation volume was collected after the 2 h incubation for insulin assay.
ELISA Protocol for insulin determinations. The following protocol was used for doing ELISA using the Rat/Mouse Insulin ELISA Kit from Linco Research, Inc., CAT#EZRMI-13K and Amplex® Red Hydrogen Peroxide/Peroxidase Assay Kit, CAT#A22188, and Amplex® Red reagent (10-acetyl-3,7-dihydroxyphenoxazine) CAT#A12222.
All reagents were Pre-warmed to room temperature before setting up experiment.
1. Dilute the 10× washing buffer into 1× washing buffer. 50 mL+450 mL de-ionized water. Do 1:10 dilution to the cell culture supernatant (Beta-TC-6 cell incubation).
2. Use one column (8 wells) wells for standard samples and QC1 and QC2, typically 0 and 5 ng/mL of insulin. On some plates full standard curves for insulin obtained as shown below.
3. Cover the unused wells well. Wash each well 3 times with 300 μL of 1× washing buffer each time. (2 minutes each washing step on the shaker.) Decant Wash Buffer and remove the residual amount from all wells by inverting the plate and tapping it smartly onto absorbent towels several times.
4. Add 20 μL Assay Buffer into that blank well and 10 μL into those wells for standards and samples.
5. Add 10 μL rat insulin standards and samples to the appropriate wells.
6. Add 80 μL Detection Antibody to all wells. Cover the plate and incubate at room temperature for 2 hours.
7. Tear off the plate cover and decant solutions from the plate. Tap to remove residual solutions in well.
8. Wash well 3 times with diluted wash buffer 300 μL per well per wash (2 minutes each washing step on the shaker). Tap to remove residual solutions as before.
9. Add 100 μL Enzyme Solution to each well. Cover plate with sealer and incubate with moderate shaking at room temperature for 30 min on the microtiter plate shaker.
10. Remove sealer, decant solutions from the plate and tap plate to remove the residual fluid.
11. Wash wells 6 times with diluted Wash Buffer, 300 μL per well per wash. Decant and tap after each wash to remove residual buffer.
12. Prepare 5 mL working solution of […] Amolex Red reagent containing 2.0 mM H2O2. 4.45 mL of 1× Reaction buffer+50 μL 10 mM Amplex Reagent+500 μL 20 mM H2O2.
13. Add 100 μL of the Amplex Red reagent/H2O2 to each well.
14. Incubate the reactions. Incubate at room temperature for 30 minutes, protected from light (using foil to wrap the plate). […]

| SMILES | insulin secretion (FIG. 5) | Percent Enhancement of Insulin Secretion (10 μM) [%] | glucose dependence of stimulation of insulin release (varying glucose concentration, FIG. 3 and FIG. 7) |
| --- | --- | --- | --- |
| COc1ccc(/C=N/NC(=O)Cc2cccc3ccccc23)cc1OC [Example 3, (E)-N′-(3,4-Dimethoxybenzylidene)-2-(naphthalene-1-yl)acetohydrazide] | increases insulin secretion | 250 | increases insulin secretion in a glucose-dependent manner |
| COc1ccc(/C=N/NC(=O)CCn2c3ccccc3c3ccccc32)cc1OC [Example 23, 3-Carbazol-9-ylpropionic acid (3,4-dimethoxybenzylidene)hydrazide] |  | 208 |  |
